Measurements reported in ChEMBL document CHEMBL5465560, “Selectivity Literature for EUbOPEN Chemogenomic Library” (2024).

Experiments:
[1] = target: Tyrosine-protein kinase JAK1 (Homo sapiens, UniProt P23458); assay: Selectivity interaction (Kinase panel (KiNativ target engagement assay in Jurkat cells)) EUB0001635a JAK1; format: cell-based; conditions: Selectivity number of off-targets 0.0, Selectivity number of targets 233.0, Source Knowledge https://www.sciencedirect.com/science/article/pii/S2451945619300674?via%3Dihub, at 1 µM
[2] = test system: Hepatocyte growth factor receptor (Homo sapiens), P08581 [M1250T]; conditions: at 10 µM
[3] = target: T1, Myosin-IIIb (Homo sapiens) (UniProt Q8WXR4); assay: Selectivity interaction (KinomeScan (DiscoverX)) EUB0000045b MYO3B
T1 sequence (whole entry): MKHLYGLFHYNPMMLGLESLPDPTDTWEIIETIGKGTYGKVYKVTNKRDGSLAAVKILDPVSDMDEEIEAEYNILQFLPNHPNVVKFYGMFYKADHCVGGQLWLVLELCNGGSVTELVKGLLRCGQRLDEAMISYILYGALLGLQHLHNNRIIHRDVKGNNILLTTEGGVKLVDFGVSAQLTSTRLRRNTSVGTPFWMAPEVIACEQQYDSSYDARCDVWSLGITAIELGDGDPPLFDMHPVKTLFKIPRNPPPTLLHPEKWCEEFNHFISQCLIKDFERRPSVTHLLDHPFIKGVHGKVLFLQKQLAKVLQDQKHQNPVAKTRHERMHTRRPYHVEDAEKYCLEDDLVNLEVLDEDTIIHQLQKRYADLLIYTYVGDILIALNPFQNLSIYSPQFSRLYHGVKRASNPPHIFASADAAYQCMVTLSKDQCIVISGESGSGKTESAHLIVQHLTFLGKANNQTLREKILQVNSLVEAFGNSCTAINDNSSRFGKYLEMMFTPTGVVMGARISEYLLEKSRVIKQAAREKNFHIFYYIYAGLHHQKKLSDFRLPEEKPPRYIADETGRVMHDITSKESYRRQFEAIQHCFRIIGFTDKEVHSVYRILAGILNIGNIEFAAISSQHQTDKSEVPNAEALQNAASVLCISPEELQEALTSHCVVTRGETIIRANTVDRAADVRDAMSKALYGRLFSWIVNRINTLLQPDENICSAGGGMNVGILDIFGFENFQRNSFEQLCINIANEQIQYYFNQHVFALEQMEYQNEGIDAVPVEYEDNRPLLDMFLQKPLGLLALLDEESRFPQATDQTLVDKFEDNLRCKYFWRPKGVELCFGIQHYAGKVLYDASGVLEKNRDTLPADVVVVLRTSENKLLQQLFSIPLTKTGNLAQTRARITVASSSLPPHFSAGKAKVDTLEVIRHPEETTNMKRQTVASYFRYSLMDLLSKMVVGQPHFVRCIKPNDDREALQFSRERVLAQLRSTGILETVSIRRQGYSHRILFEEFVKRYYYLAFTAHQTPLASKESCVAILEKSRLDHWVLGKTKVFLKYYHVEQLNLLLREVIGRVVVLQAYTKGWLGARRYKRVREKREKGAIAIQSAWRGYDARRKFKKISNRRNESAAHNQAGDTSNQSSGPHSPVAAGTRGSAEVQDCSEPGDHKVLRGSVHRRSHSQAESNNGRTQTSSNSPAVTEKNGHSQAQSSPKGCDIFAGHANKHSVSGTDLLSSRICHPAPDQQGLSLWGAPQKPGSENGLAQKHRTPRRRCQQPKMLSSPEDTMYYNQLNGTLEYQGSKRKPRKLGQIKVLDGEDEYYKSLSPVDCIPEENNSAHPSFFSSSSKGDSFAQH

[4] = target: T2, Phosphatidylinositol 5-phosphate 4-kinase type-2 gamma (Homo sapiens) (UniProt Q8TBX8); conditions: at 10 µM
T2 sequence (whole entry): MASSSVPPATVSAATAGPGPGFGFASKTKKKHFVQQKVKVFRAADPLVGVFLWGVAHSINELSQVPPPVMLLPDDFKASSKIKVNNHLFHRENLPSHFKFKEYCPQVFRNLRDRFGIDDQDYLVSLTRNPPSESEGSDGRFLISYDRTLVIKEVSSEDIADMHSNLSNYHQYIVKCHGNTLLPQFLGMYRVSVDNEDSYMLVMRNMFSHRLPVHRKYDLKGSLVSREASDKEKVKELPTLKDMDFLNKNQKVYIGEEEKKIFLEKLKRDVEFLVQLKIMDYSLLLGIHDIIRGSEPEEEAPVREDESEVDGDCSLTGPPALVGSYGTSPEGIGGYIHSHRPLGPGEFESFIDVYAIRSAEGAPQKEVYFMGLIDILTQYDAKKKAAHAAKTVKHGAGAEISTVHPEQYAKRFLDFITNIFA

[5] = target: Nuclear receptor subfamily 1 group I member 2 (Homo sapiens, UniProt O75469); assay: Selectivity interaction (Pregnane X Receptor (PXR, SXR) binding, human recombinant ) EUB0000877a NR1I2
[6] = target: T3, Serine/threonine-protein kinase BRSK2 (Homo sapiens) (UniProt Q8IWQ3); assay: Selectivity interaction (KinomeScan (DiscoverX)) EUB0001619a BRSK2; conditions: at 1 µM
T3 sequence (whole entry): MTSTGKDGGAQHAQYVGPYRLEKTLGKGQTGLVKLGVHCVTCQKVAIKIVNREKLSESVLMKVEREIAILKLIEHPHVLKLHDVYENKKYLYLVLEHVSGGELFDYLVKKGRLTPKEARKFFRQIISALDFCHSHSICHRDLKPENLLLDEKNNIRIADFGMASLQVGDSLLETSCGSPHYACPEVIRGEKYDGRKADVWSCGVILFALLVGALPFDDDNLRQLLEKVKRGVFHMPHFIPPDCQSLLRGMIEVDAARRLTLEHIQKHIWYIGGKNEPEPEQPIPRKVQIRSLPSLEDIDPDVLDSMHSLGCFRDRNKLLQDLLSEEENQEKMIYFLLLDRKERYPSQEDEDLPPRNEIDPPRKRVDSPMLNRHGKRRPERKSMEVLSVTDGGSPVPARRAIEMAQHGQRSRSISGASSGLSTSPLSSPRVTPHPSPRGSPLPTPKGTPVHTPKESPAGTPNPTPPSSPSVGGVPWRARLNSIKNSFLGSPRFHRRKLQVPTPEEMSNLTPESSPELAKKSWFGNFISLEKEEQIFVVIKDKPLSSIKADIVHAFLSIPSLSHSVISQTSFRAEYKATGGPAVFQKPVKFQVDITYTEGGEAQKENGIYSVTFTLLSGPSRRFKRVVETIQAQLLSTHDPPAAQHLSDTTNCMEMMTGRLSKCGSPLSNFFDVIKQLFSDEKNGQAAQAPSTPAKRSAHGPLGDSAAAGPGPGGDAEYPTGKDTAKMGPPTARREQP

[7] = target: Fibroblast growth factor receptor 1 (Homo sapiens, UniProt P11362); assay: Selectivity interaction (KinomeScan (DiscoverX)) EUB0000607a FGFR1; conditions: at 10 µM
[8] = target: Casein kinase II subunit alpha (Homo sapiens, UniProt P68400); conditions: at 10 µM
Sequence of Casein kinase II subunit alpha (P68400 whole entry, looked up): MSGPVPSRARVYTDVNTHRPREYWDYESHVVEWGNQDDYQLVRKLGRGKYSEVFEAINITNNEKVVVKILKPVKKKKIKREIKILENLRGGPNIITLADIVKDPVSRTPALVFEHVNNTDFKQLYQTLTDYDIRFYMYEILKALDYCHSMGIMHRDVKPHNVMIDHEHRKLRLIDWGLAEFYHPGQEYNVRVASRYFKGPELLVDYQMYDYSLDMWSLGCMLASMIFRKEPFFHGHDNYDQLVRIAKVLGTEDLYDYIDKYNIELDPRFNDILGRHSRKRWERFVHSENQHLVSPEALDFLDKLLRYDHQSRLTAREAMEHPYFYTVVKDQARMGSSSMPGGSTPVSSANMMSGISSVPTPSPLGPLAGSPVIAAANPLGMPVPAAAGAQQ

Sequence of Tyrosine-protein kinase JAK1 (P23458 whole entry): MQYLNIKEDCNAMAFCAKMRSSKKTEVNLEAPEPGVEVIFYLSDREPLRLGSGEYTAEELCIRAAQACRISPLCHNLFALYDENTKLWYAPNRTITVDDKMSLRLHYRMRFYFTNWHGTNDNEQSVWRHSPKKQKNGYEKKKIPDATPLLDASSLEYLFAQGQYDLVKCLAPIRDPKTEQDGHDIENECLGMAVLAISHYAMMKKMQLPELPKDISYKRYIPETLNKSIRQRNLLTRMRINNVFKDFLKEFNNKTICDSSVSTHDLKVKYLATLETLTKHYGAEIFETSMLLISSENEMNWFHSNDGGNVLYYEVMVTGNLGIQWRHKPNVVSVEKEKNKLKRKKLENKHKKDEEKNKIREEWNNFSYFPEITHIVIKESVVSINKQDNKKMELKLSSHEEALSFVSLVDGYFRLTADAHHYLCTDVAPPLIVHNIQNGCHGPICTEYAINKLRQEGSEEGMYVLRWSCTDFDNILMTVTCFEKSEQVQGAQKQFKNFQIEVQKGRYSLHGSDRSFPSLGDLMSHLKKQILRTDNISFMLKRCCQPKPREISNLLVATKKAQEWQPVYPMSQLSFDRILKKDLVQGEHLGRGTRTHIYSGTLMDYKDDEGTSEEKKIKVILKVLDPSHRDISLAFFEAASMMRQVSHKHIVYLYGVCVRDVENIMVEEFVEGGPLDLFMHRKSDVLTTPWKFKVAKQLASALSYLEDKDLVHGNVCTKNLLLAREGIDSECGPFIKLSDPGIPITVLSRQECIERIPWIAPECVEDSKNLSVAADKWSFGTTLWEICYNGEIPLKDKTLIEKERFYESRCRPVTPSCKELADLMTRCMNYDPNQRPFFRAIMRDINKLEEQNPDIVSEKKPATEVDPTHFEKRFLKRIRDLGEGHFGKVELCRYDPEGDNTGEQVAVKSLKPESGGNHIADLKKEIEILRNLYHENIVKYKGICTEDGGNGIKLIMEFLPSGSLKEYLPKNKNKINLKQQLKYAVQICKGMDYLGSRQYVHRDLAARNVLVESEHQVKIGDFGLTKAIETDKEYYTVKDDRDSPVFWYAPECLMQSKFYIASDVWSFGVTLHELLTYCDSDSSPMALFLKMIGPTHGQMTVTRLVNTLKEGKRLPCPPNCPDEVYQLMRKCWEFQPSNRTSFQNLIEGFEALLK
Sequence of Fibroblast growth factor receptor 1 (P11362 22-822 limits assumed): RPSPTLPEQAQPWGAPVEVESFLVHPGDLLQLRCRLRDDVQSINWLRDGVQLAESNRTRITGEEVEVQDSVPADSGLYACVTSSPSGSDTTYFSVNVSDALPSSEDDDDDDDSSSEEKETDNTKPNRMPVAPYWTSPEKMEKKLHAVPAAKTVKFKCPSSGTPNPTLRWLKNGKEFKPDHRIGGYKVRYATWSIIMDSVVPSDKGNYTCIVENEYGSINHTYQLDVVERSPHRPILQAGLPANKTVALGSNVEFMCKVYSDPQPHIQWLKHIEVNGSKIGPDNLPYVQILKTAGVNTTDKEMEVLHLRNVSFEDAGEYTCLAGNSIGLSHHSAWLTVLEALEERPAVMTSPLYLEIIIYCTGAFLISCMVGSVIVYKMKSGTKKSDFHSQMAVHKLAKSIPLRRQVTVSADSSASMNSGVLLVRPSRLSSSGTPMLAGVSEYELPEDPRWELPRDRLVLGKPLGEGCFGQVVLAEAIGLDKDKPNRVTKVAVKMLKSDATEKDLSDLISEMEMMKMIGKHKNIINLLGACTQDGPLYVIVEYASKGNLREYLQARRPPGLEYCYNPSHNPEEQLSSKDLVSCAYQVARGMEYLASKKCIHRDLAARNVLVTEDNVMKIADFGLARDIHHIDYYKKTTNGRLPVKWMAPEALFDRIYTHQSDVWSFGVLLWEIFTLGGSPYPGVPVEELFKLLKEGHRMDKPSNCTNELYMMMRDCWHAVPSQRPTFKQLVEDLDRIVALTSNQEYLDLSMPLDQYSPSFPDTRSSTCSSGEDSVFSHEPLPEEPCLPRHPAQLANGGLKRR
Sequence of Hepatocyte growth factor receptor (Homo sapiens), P08581 [M1250T] (P08581 whole entry M1250T): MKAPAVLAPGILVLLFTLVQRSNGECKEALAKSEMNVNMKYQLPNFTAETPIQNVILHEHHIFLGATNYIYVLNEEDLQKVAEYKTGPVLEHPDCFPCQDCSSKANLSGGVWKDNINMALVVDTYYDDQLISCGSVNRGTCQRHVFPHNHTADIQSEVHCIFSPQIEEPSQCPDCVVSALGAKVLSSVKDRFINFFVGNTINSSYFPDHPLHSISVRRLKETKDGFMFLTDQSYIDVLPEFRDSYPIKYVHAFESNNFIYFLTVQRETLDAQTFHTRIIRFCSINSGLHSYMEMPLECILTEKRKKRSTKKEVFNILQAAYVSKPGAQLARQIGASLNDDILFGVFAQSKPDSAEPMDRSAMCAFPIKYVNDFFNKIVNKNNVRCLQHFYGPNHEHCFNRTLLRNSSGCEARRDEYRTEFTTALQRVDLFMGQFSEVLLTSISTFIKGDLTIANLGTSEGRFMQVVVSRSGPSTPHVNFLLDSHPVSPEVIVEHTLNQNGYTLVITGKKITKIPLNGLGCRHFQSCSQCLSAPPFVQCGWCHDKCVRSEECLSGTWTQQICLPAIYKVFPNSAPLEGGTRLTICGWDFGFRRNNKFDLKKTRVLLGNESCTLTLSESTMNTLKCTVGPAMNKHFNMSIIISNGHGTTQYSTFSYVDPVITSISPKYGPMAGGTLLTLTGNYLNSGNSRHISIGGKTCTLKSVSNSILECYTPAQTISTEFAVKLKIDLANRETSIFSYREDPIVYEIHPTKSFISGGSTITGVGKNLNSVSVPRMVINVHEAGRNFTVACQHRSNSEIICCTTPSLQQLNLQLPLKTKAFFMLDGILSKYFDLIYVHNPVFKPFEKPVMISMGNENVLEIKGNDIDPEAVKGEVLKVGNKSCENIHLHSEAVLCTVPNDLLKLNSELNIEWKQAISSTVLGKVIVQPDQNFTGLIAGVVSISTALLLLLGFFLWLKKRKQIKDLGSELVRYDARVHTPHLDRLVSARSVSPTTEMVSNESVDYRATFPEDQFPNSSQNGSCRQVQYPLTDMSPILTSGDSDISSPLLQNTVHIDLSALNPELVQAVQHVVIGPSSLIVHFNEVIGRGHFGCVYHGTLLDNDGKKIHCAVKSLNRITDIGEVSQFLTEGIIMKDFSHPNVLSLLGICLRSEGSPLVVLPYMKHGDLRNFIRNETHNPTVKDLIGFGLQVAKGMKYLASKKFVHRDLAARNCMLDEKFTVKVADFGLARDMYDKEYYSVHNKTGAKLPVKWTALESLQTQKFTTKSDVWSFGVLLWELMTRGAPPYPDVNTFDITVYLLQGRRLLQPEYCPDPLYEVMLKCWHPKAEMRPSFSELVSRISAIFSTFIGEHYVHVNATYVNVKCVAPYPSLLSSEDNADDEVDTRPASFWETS
Sequence of Nuclear receptor subfamily 1 group I member 2 (O75469 whole entry): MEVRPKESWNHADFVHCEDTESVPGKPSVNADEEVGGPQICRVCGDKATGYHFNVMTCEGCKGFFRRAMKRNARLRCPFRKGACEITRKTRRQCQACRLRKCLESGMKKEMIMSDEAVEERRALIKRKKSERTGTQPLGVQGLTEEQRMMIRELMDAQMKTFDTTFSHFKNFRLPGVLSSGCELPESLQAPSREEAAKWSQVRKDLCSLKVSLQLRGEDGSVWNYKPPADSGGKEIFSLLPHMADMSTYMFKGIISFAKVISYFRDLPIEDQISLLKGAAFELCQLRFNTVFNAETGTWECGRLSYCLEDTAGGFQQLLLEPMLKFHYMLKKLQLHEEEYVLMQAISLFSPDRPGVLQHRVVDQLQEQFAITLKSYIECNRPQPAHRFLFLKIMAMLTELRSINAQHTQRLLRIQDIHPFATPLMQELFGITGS

In the case of C=CC(=O)Nc1ccc(C(=O)Nc2[nH]nc3c2CN(C(=O)N[C@H](CN(C)C)c2ccccc2)C3(C)C)cc1, the % of engagement [1] is reported as 7.9%.

COCC(=O)NC/C=C/c1ccc2ncnc(Nc3ccc(Oc4ccc(C)nc4)c(C)c3)c2c1 [CP-724714] showed a % of control [2] of 100%.

Compound C=CC(=O)Nc1cc(-n2c(=O)ccc3cnc4ccc(-c5ccc(NS(C)(=O)=O)cc5)cc4c32)ccc1C has a % of control ([3]; at 1 µM) of 92% and a % of control ([3]; at 10 µM) of 100%.

Cc1cc([C@@H](C)Nc2ccccc2C(=O)O)c2nc(N3CCOCC3)cc(=O)n2c1 [AZD-6482] was tested, and the % of control [4] was 58%.

Compound CCC(=O)N1CC[C@H](Nc2ncnc3c2CN(c2cnc(OC)c(C(F)(F)F)c2)CC3)C1 [LENIOLISIB] has an IC50 [5] greater than 30 µM.

N#Cc1cccc(-c2c[nH]c3ncnc(N4CCOCC4)c23)c1 showed a % of control [6] of 85%.

Compound CNC(=O)Nc1ccc(-c2nc(N3CC4CCC(C3)O4)c3cnn(C4CCC5(CC4)OCCO5)c3n2)cc1 has a % of control [7] of 100%.

Compound CCN(CC)CCCCNc1ncc2cc(-c3cc(OC)cc(OC)c3)c(NC(=O)NC(C)(C)C)nc2n1 has a % of control [8] of 100%.
